Patent US5336762A, “Polychelating agents for image and spectral enhancement (and spectral shift)” (priority 1991, dated 1994)

Legend:
[1] = cited from earlier work
[2] = In vitro T1 relaxation of water protons (IBM PC20 Minispectrometer, 20 MHz); format: physicochemical
Description: Fe^+3 as the dextran-iron oxide (in which the iron is complexed loosely to the hydroxyl groups of dextran), was obtained as "Proferdex" (20% iron, w/w) (Fisons Pharmaceuticals) and tested, both before and after extensive dialysis (to remove loosely bound iron), for NMR T1-enhancing activity in vitro (using an IBM PC20 Minispectrometer, 20 MHz).

[3] = test system: BRO human melanoma; assay: MR imaging of human BRO melanoma in nude mice; format: in vivo, Swiss-strain nude mice bearing human melanoma
Description: These studies are performed using the rapidly proliferating, amelanotic, BRO human melanoma grown to a weight of 2.0-6.0 gms in the axillary soft tissues of Swiss-strain nude mice. The amelanotic nature of the tumor avoids any potential for alteration of unenhanced tissue-relaxation times by naturally occurring paramagnetic substances which have been described for pigmented melanomas. The axillary location of tumors allows imaging of the tumor and liver in adjacent slices. This shortens the imaging time for each group of mice and provides maximal anatomic separation of tumors from the higher-intensity kidneys and bladder. MR imaging is performed on a Diasonics 0.35T instrument, using a 30-cm rf coil, and a T1-weighted spin-echo pulse sequence (TR 500, TE 40). Pentobarbital is used for animal anesthesia in order to avoid drug modulation of image intensities. T1 relaxation were performed on the freshly excised organs. In general, these T1's decreased in proportion to increased image intensities. […] The new soluble polymeric agent had the following advantages: […]

[4] = test system: spleen; assay: T1 of freshly excised rat spleens; format: in vivo, Sprague-Dawley rats; settings: 30 min post vs. pre
Description: (§2) Sprague-Dawley rats were imaged using a 0.35-Tesla, Diasonics clinical MR imaging system and a 30-cm rf coil. Three clinically relevant pulse sequences were used: 1) spin-echo with a TR of 0.5 seconds (for T1-weighted images), 2) inversion-recovery (IR) (for T1-weighted images), and 3) spin-echo with a TR of 2.0 seconds (for T2-weighted images). Diasonics software was used to calculate the area-averaged tissue intensities before and after injection of contrast agents. Dual pulse sequences (spin-echo, with TR's of 0.5 and 1.5 seconds or 1.0 and 2.0 seconds) were also used to calculate the in vivo T1 relaxation times. At the conclusion of imaging, the liver, spleen and kidneys were excised and their T1 (IR) and T2 (Carr-Purcell-Meiboom-Gill) relaxation times were determined at 37° C., using an IBM PC20 Minispectrometer. For these in vitro experiments, uninjected rats were used in place of preinjection controls.

[5] = test system: liver, spleen, kidney; assay: In vitro T1 of excised rat organs (Example 18b); format: in vivo, Sprague-Dawley rats; settings: same doses
Description: (§1) Test materials were injected intravenously into 500 gm Sprague-Dawley rats. At approximately 30 minutes, the rats were placed in the head coil of a 0.35 Tesla clinical imaging device (Diasonics Corp.), and T1-weighted images (using both a spin-echo pulse sequence at TR's of 0.5, 1.5 and 2.0, and an inversion recovery sequence) were obtained on image slices of 0.5 cm thickness taken through the liver and kidneys. T1 relaxation times were determined from the TR=0.5 and 2.0 data using area-averaging of signal intensities and a proprietary software program for calculations. At the completion of imaging, the rats were sacrificed by decapitation (exsanguination). Their livers, kidneys and spleens were excised, tested for in vitro correlations with the in vivo changes in proton T1 relaxation times and then placed in buffered formalin fixative for histopathologic evaluation.

[6] = test system: human brain tumors; settings: preliminary studies; cited from earlier work
[7] = cited from earlier work; remark: listed apart in the source
[8] = test system: liver, kidney; assay: Proton T1 relaxation times in mouse organs (Example 18a); format: in vivo, CBA mice; settings: 30 min; Gd dose 0.23 mmol/kg (DEAE forms), 0.47 (dimeglumine)
Description: Test materials were injected i.v. into 25 gm CBA mice. At 30 min the mice were sacrificed by decapitation (exsanguination) and the excised livers and kidneys assessed for changes in proton T1 relaxation times (20 MHz; IR pulse sequence). Doses of test materials were made equivalent based on in vitro potency (ID50 analysis).

[9] = test system: 7777-strain Morris hepatoma; assay: MR imaging of Morris hepatoma (7777) in Buffalo rats; format: in vivo, Buffalo-strain rats; settings: after injection
Description: After two to three weeks the local tumors had reached an average diameter of 0.5 and 1.0 cm. The rats were then imaged both before and after i.v. injections of Gd-DTPA or microsphere Gd-DTPA. MR imaging was performed in a 30cm rf coil with a 0.35 Tesla, Diasonics clinical MRI system (as described above). Post-contrast images were obtained serially beginning immediately after injection and continuing for several hours thereafter.

[10] = test system: liver, kidney, bone marrow; assay: In vivo MR imaging T1 in rats (Example 18b); parameters: species or system Sprague-Dawley rats; settings: Gd 0.30 (soluble), 0.15 (microspheres), 0.30 (dimeglumine) mmol/kg; ~30 min
Description: as §1

[11] = test system: liver; assay: Liver T1 decrease in mice; format: in vivo; settings: usual 30-minute imaging interval; 0.10 to 0.30 mmoles/kg
[12] = test system: liver, kidney, bone marrow; assay: In vivo MR imaging of normal tissues, Sprague-Dawley rats (0.35 Tesla)
Description: as §2
Post-contrast images were obtained serially beginning immediately after the i.v. injection of contrast agents and continuing for several hours thereafter.

[13] = test system: blood in heart chambers; assay: T1-weighted blood flow images of cardiac chambers; format: in vivo, Sprague-Dawley rats; settings: comparable Gd dose
Description: Gd:DTPA-dextran microspheres (at 0.3 mmoles Gd/kg) were injected i.v. at time zero into Sprague-Dawley rats and images were obtained immediately and serially each 5 minutes×4 (spin-echo, multi-echo, TR=0.5 and 1.5).

[14] = 30 min post vs. pre, Gd 0.3 mmoles/kg dimeglumine, 0.009 mmoles/kg microspheres

## O=C(O)CN1CCN(CC(=O)O)CCN(CC(=O)O)CCN(CC(=O)O)CC1 [DOTA, 1,4,7,10-tetraazacyclododecane-N,N',N"-tetraacetic acid]
[1]; wide range of Larmor frequencies
  relaxivity, times that of Gd-DTPA: approximately 2 times

## O=[N+]([O-])[O-].O=[N+]([O-])[O-].O=[N+]([O-])[O-].[Fe+3] [Ferric nitrate]
[2]; Table 1, iron compounds
  R1 relaxivity: 1.476 mmol⁻¹ s⁻¹

## CNC[C@H](O)[C@@H](O)[C@H](O)[C@H](O)CO.CNC[C@H](O)[C@@H](O)[C@H](O)[C@H](O)CO.O=C([O-])CN(CCN(CC(=O)[O-])CC(=O)O)CCN(CC(=O)[O-])CC(=O)O.[Gd+3] [Gd:DTPA dimeglumine]
[1]; typically 15 MHz
  relaxivity at higher radio frequencies: marked decrease in relaxivity
[3]; 0.03 mmols Gd per kg
  enhancement of BRO melanoma: barely perceptible
[3]; in vivo
  dose required for enhancement, higher than 0.03 mmols Gd per kg: 1/2
[4]
  % decrease in T1 of spleen: 14.4%
[5]; control 275 msec
  T1 (% of control), in vitro, liver: 88%
[5]; control 464 msec
  T1 (% of control), in vitro, spleen: 86%
[5]; control 492 msec
  T1 (% of control), in vitro, kidney: 25%
[6]
  enhancement of human brain tumors: almost all human brain tumors undergo significant enhancement
[7]; in vivo
  clearance half-time from bloodstream and tumors: 20 min
[7]; intravenous
  sequestered in the kidneys: > 90%
[2]; 20 MHz, phosphate-buffered saline
  ID50 (total weight), concentration reducing T1 to 50% of buffered saline: 84 µg/mL
[8]
  T1 (% of control), kidney: 24%
  T1 (% of control), liver: 83%
[9]
  time by which contrast was significantly reduced: ≤ 1.5 h
[10]
  T1 (% of control), in vivo, kidney: 57%
  T1 (% of control), in vivo, liver: 83%
[11]
  changes in liver T1: minimal changes in liver Tl's
[12]; [14]
  % decrease in T1, kidney: 55.7%
  % decrease in T1, liver: 24.6%
[12]; rat, in vivo
  time after which all liver enhancement was lost: 50 min
[13]
  enhancement of blood flow images: almost completely ineffective

## [Cl][Gd]([Cl])[Cl] [GdCl3]
[2]; physiologic saline
  R1 (in vitro T1 relaxivity): 3.03 mM⁻¹ s⁻¹
